Laboratory results: PubChem BioAssay AID396

Biological target: 14-3-3 protein beta/alpha (Homo sapiens) (UniProt P31946)
Assay: YWHAB binders by thermal stabilisation, biophysical, DSF, SYPRO orange, recombinant human protein (AID 396)
Details: at 10 µM, protein 2.3 µM, buffer 10 mM HEPES, pH 7.5, NaCl 150 mM, active compounds read high

Sequence of 14-3-3 protein beta/alpha (Homo sapiens) (P31946 whole entry, looked up): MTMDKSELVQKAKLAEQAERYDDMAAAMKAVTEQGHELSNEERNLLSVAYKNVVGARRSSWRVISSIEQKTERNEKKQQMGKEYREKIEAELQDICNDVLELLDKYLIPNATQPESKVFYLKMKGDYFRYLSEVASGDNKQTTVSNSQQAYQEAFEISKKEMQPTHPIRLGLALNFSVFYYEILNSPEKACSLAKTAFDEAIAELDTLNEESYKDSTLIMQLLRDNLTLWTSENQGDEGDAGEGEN

Tm shift: 3.13 Celsius
SMILES: O=c1c(O)c(-c2ccc(O)c(O)c2)oc2cc(O)cc(O)c12
